Measurements reported in ChEMBL document CHEMBL1201862, “PubChem BioAssay data set” (2004).
Values joined by “and” are separate entries in the source; they are usually repeats but may differ in a detail not shown here. Equal values may be shown once.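 These data come from cells grown in 96-well plates and exposed to compound for 48 hours at five concentrations. The concentration for 50% growth inhibition is given as GI50.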 Active and inactive are the calls of the source. No stated cut-off is given here; in the data, active = GI50 up to about 1.1 µM and inactive = higher.

How the values were obtained:
Test in all cases: growth of human tumour cells (NCI), 48 h
SNB-19 = test system: SNB-19
CAKI-1 = test system: CAKI-1
UO-31 = test system: UO-31
NCI-H226 = test system: NCI-H226
OVCAR-8 = test system: OVCAR-8
SF-295 = test system: SF-295
COLO 205 = test system: COLO 205
OVCAR-3 = test system: OVCAR-3
IGROV-1 = test system: IGROV-1
MOLT-4 = test system: MOLT-4
SF-539 = test system: SF-539
NCI-H460 = test system: NCI-H460
OVCAR-5 = test system: OVCAR-5
ACHN = test system: ACHN
HCT-116 = test system: HCT-116

Measured: GI50

CC(=O)OCC1OC(N2C(=O)C(=O)c3cc(C)ccc32)C(OC(C)=O)C(OC(C)=O)C1OC(C)=O (centres undefined)
inactive: SNB-19 > 100 µM | CAKI-1 > 100 µM | UO-31 > 100 µM | NCI-H226 > 100 µM | OVCAR-8 63.4 µM | SF-295 > 100 µM | COLO 205 94.6 µM | OVCAR-3 99.3 µM | IGROV-1 46 µM | MOLT-4 29 µM | SF-539 > 100 µM | NCI-H460 > 100 µM | OVCAR-5 > 100 µM | ACHN 50.9 µM | HCT-116 59.7 µM

CC(C)(O)[C@@H]1CC[C@@]2(C)CCC[C@H](O)[C@H]2C1
inactive: SNB-19 > 100 µM | CAKI-1 > 100 µM | UO-31 > 100 µM | NCI-H226 > 100 µM | OVCAR-8 > 100 µM | SF-295 > 100 µM | COLO 205 > 100 µM | OVCAR-3 > 100 µM | IGROV-1 > 100 µM | MOLT-4 > 100 µM | SF-539 > 100 µM | NCI-H460 > 100 µM | OVCAR-5 > 100 µM | ACHN > 100 µM | HCT-116 > 100 µM

CCOC(=O)CCC1(C(=O)OC)CCCC1=O (centres undefined)
inactive: SNB-19 > 100 µM | UO-31 > 100 µM | OVCAR-8 > 100 µM | SF-295 > 100 µM | COLO 205 > 100 µM | OVCAR-3 > 100 µM | IGROV-1 > 100 µM | MOLT-4 > 100 µM | SF-539 > 100 µM | NCI-H460 > 100 µM | OVCAR-5 > 100 µM | ACHN > 100 µM | HCT-116 > 100 µM

Cc1c2c(c(C)c3c1[nH]c1ccccc13)CN(C)CC2
inactive: SNB-19 27.4 µM | CAKI-1 13.2 µM | UO-31 19.5 µM | NCI-H226 19.1 µM | OVCAR-8 16.4 µM | SF-295 17.1 µM | COLO 205 15 µM | OVCAR-3 18.7 µM | IGROV-1 26.8 µM | MOLT-4 28.7 µM | SF-539 14.2 µM | NCI-H460 16.5 µM | OVCAR-5 38.8 µM | ACHN 18.2 µM | HCT-116 16 µM

c1ccc(C2Nc3ccccc3C3OCCCC23)cc1 (centres undefined)
inactive: SNB-19 31.3 µM | CAKI-1 2.47 µM | UO-31 27 µM | NCI-H226 14.8 µM | OVCAR-8 17.5 µM | SF-295 16.6 µM | COLO 205 35.4 µM | IGROV-1 11.8 µM | MOLT-4 24.9 µM | SF-539 16.1 µM | NCI-H460 > 10 µM | OVCAR-5 38.7 µM | ACHN 11.3 µM | HCT-116 17.6 µM

Cc1ccc(/C=N/NS(=O)(=O)c2ccccc2)c(C)c1
inactive: CAKI-1 > 100 µM | UO-31 > 100 µM | NCI-H226 > 100 µM | OVCAR-8 > 100 µM | SF-295 > 100 µM | COLO 205 > 100 µM | OVCAR-3 > 100 µM | IGROV-1 > 100 µM | MOLT-4 > 100 µM | SF-539 > 100 µM | NCI-H460 > 100 µM | OVCAR-5 > 100 µM | ACHN > 100 µM | HCT-116 > 100 µM

CCOC(=O)C1N(S(=O)(=O)c2ccc(C)cc2)CCC12C(c1ccc(OC)cc1)NC1CCCCC12 (centres undefined)
inactive: SNB-19 > 100 µM | CAKI-1 > 100 µM | UO-31 > 100 µM | NCI-H226 > 100 µM | OVCAR-8 > 100 µM | SF-295 77.6 µM | COLO 205 > 100 µM | OVCAR-3 > 100 µM | IGROV-1 > 100 µM | SF-539 55.7 µM | NCI-H460 > 100 µM | OVCAR-5 > 100 µM | ACHN > 100 µM | HCT-116 > 100 µM

CCOC(=O)/C(=C/c1ccc(C(F)(F)F)cc1)N(CC)CC
inactive: CAKI-1 58.6 µM | UO-31 46.1 µM | NCI-H226 48.4 µM | OVCAR-8 56 µM | SF-295 84.7 µM | COLO 205 > 100 µM | IGROV-1 47.8 µM | MOLT-4 96.4 µM | SF-539 > 100 µM | NCI-H460 > 100 µM | OVCAR-5 87.1 µM | ACHN 42.1 µM | HCT-116 40 µM

Cc1cc(C)cc(NC(N)=S)c1
inactive: SNB-19 > 100 µM | CAKI-1 > 100 µM | UO-31 > 100 µM | NCI-H226 > 100 µM | OVCAR-8 > 100 µM | SF-295 > 100 µM | COLO 205 26.7 µM | OVCAR-3 > 100 µM | IGROV-1 > 100 µM | MOLT-4 > 100 µM | SF-539 > 100 µM | NCI-H460 > 100 µM | OVCAR-5 > 100 µM | ACHN > 100 µM | HCT-116 35.5 µM

O=C1c2ccccc2-c2c3c(cc4ccnc1c24)OCO3 [LIRIODENINE]
inactive: SNB-19 5.68 µM and 8 µM | CAKI-1 3.63 µM and 3.77 µM | UO-31 4.94 µM and 3.42 µM | NCI-H226 4.69 µM and 5.27 µM | OVCAR-8 4.04 µM and 5.14 µM | SF-295 6.12 µM and 4.86 µM | COLO 205 4.79 µM and 4.24 µM | OVCAR-3 9.25 µM and 10.5 µM | IGROV-1 5.97 µM and 3.9 µM | MOLT-4 3.38 µM and 3.67 µM | NCI-H460 3.59 µM and 3.34 µM | OVCAR-5 16.9 µM and 11.5 µM | ACHN 3.94 µM and 4.32 µM | HCT-116 3.29 µM and 3.17 µM

O=S(=O)(O)c1cc(O)c2c(O)c(/N=N/c3ccc(/C=C/c4ccc(/N=N/c5c(S(=O)(=O)O)cc6cc(S(=O)(=O)O)cc(O)c6c5O)cc4S(=O)(=O)O)c(S(=O)(=O)O)c3)c(S(=O)(=O)O)cc2c1
inactive: SNB-19 > 100 µM | CAKI-1 > 100 µM | UO-31 > 100 µM | NCI-H226 > 100 µM | OVCAR-8 > 100 µM | SF-295 > 100 µM | COLO 205 > 100 µM | OVCAR-3 > 100 µM | IGROV-1 > 100 µM | MOLT-4 > 100 µM | SF-539 > 100 µM | NCI-H460 > 100 µM | OVCAR-5 > 100 µM | ACHN > 100 µM | HCT-116 > 100 µM

CCOC(=O)C(Cc1ccc([N+](=O)[O-])cc1)NC(=O)CC1c2ccccc2-c2ccccc21 (centres undefined)
inactive: SNB-19 39.3 µM | UO-31 > 100 µM | NCI-H226 > 100 µM | OVCAR-8 63.8 µM | SF-295 51.5 µM | COLO 205 > 100 µM | OVCAR-3 > 100 µM | IGROV-1 > 100 µM | MOLT-4 > 100 µM | SF-539 27.9 µM | NCI-H460 > 100 µM | ACHN 20.7 µM | HCT-116 > 100 µM

CCC(C)NC1=C(NC(C)=O)C(=O)c2ccccc2C1=O (centres undefined)
inactive: SNB-19 > 75 µM | CAKI-1 > 75 µM | UO-31 > 75 µM | NCI-H226 > 75 µM | OVCAR-8 > 75 µM | SF-295 > 75 µM | COLO 205 > 75 µM | OVCAR-3 40.6 µM | IGROV-1 > 75 µM | MOLT-4 74 µM | SF-539 > 75 µM | NCI-H460 > 75 µM | OVCAR-5 > 75 µM | ACHN > 75 µM | HCT-116 > 75 µM

Cc1cn(Cc2ccccc2CCO)c(=S)[nH]c1=O
inactive: SNB-19 > 100 µM | CAKI-1 > 100 µM | UO-31 > 100 µM | NCI-H226 34.8 µM | OVCAR-8 > 100 µM | SF-295 > 100 µM | COLO 205 > 100 µM | OVCAR-3 > 100 µM | IGROV-1 > 100 µM | MOLT-4 > 100 µM | SF-539 > 100 µM | NCI-H460 > 100 µM | OVCAR-5 > 100 µM | ACHN > 100 µM

OC1c2ccccc2C2(O)C1C(c1ccccc1)C(c1ccccc1)C2(O)c1ccccc1 (centres undefined)
inactive: SNB-19 23.5 µM | CAKI-1 15.5 µM | UO-31 13.4 µM | OVCAR-8 12.6 µM | SF-295 6.52 µM | COLO 205 14 µM | OVCAR-3 4.88 µM | IGROV-1 18.2 µM | MOLT-4 3.98 µM | SF-539 12.6 µM | NCI-H460 4.56 µM | OVCAR-5 10.7 µM | ACHN 5.82 µM

Sc1nnc(C(c2ccccc2)c2ccccc2)[nH]1
inactive: SNB-19 > 100 µM | UO-31 > 100 µM | NCI-H226 > 100 µM | OVCAR-8 > 100 µM | SF-295 > 100 µM | COLO 205 > 100 µM | OVCAR-3 > 100 µM | IGROV-1 > 100 µM | MOLT-4 > 100 µM | SF-539 > 100 µM | NCI-H460 > 100 µM | OVCAR-5 > 100 µM | ACHN > 100 µM | HCT-116 > 100 µM

COC(=O)C1CC/C(=N\c2cccc(C(F)(F)F)c2)N1 (centres undefined)
inactive: SNB-19 > 100 µM | CAKI-1 > 100 µM | UO-31 > 100 µM | NCI-H226 > 100 µM | OVCAR-8 > 100 µM | SF-295 > 100 µM | COLO 205 > 100 µM | OVCAR-3 > 100 µM | IGROV-1 > 100 µM | MOLT-4 > 100 µM | NCI-H460 > 100 µM | OVCAR-5 > 100 µM | ACHN > 100 µM | HCT-116 > 100 µM

Cc1cc(C)nc(NS(=O)(=O)c2ccc(NC(=O)c3cccc4c(Nc5ccc(S(=O)(=O)Nc6nc(C)cc(C)n6)cc5)c5ccc(Cl)cc5nc34)cc2)n1
inactive: SNB-19 28.1 µM | CAKI-1 19.5 µM | UO-31 13.4 µM | OVCAR-8 34.7 µM | SF-295 38 µM | COLO 205 33.8 µM | OVCAR-3 17.5 µM | IGROV-1 46.2 µM | MOLT-4 33.3 µM | SF-539 37.8 µM | NCI-H460 37 µM | OVCAR-5 > 100 µM | ACHN 27.3 µM | HCT-116 28.1 µM
